Reference: patent publication US7767665B2, “1,3-benzothiazinone derivatives and use thereof” (Takeda Pharmaceutical Company Limited, priority 2001, dated 2010)

With `O=C(O)CCc1ccnc(-c2nc(=O)c3ccc(Br)cc3s2)c1` [Example 188, 3-[2-(7-Bromo-4-oxo-4H-1,3-benzothiazin-2-yl)-4-pyridyl]propionic acid] the melting point was 257.5 to 259.1 °C.
`Cc1cc(CCC(=O)OC(C)(C)C)nc(-c2nc(=O)c3ccccc3s2)c1` [Example 189, tert-Butyl 3-[4-methyl-6-(4-oxo-4H-1,3-benzothiazin-2-yl)-2-pyridyl]propanoate] gave a melting point of 168.5 to 169.3 °C.
For `Cc1cc(CCC(=O)OC(C)(C)C)nc(-c2nc(=O)c3ccc(Cl)cc3s2)c1` [Example 190, tert-Butyl 3-[6-(7-chloro-4-oxo-4H-1,3-benzothiazin-2-yl)-4-methyl-2-pyridyl]propanoate], the melting point was 162.3 to 163 °C.
For `Cc1cc(CCC(=O)O)nc(-c2nc(=O)c3ccccc3s2)c1` [Example 191, 3-[4-Methyl-6-(4-oxo-4H-1,3-benzothiazin-2-yl)-2-pyridyl]propionic acid], the melting point was 244.6 to 245.5 °C.
Work on `Cc1cc(CCC(=O)O)nc(-c2nc(=O)c3ccc(Cl)cc3s2)c1` [Example 192, 3-[6-(7-Chloro-4-oxo-4H-1,3-benzothiazin-2-yl)-4-methyl-2-pyridyl]propionic acid] yielded a melting point of 232.2 to 233.2 °C.
With `O=c1nc(-c2cccc(-c3cccs3)n2)sc2ccccc12` [Example 193, 2-[6-(2-Thienyl)-2-pyridyl]-4H-1,3-benzothiazin-4-one] the melting point was 222.2 to 223.4 °C.
With `O=c1nc(-c2cccc(-c3ccco3)n2)sc2ccccc12` [Example 194, 2-[6-(2-Furyl)-2-pyridyl]-4H-1,3-benzothiazine-4-one] the melting point was 217.9 to 218.4 °C.
`O=c1nc(-c2cccc(-c3cnco3)n2)sc2ccccc12` [Example 195] showed a melting point of 271.3 to 272.7 °C.
Compound `O=c1nc(-c2cccc(-n3cccn3)n2)sc2ccccc12` [Example 196, 2-[6-(1H-Pyrazol-1-yl)-2-pyridyl]-4H-1,3-benzothiazine-4-one] has a melting point of 253 to 254 °C.
For `O=c1nc(-c2cccc(-c3ccccc3)n2)sc2ccccc12` [Example 197, 2-(6-Phenyl-2-pyridyl)-4H-1,3-benzothiazine-4-one], the melting point was 195.4 to 197 °C.
For `COc1ccc(-c2cccc(-c3nc(=O)c4ccccc4s3)n2)cc1` [Example 198, 2-[6-(4-Methoxyphenyl)-2-pyridyl]-4H-1,3-benzothiazine-4-one], the melting point was 200.1 to 201.1 °C.
`O=c1nc(-c2cccc(-c3ccccn3)n2)sc2ccccc12` [Example 199, 2-[6-(2,2′-Bipyridyl)]-4H-1,3-benzothiazine-4-one] showed a melting point of 222.1 to 223.9 °C.
For `Cc1ccnc(-c2cc(C)cc(-c3nc(=O)c4ccccc4s3)n2)c1` [Example 200, 2-[6-(4,4′-Dimethyl-2,2′-bipyridyl)]-4H-1,3-benzothiazine-4-one], the melting point was 234.9 to 235.2 °C.
For `O=C(NCCO)c1cccc(-c2nc(=O)c3ccccc3s2)n1` [Example 201, N-(2-Hydroxyethyl)-6-(4-oxo-4H-1,3-benzothiazin-2-yl)-2-pyridinecarboxamide], the melting point was 213.8 to 215.2 °C.
Work on `CC(C)(C)OC(=O)NCc1cccc(-c2nc(=O)c3ccccc3s2)n1` [Example 202, tert-Butyl [6-(4-Oxo-4H-1,3-benzothiazin-2-yl)-2-pyridyl]methylcarbamate] yielded a melting point of 160 to 162.1 °C.
In the case of `CC(=O)NCc1cccc(-c2nc(=O)c3ccccc3s2)n1` [Example 204, N-[[6-(4-Oxo-4H-1,3-benzothiazin-2-yl)-2-pyridyl]methyl]ace tamide], the melting point was 199.2 to 200.4 °C.
With `CCC(=O)NCc1cccc(-c2nc(=O)c3ccccc3s2)n1` [Example 205, N-[[6-(4-Oxo-4H-1,3-benzothiazin-2-yl)-2-pyridyl]methyl]propanamide] the melting point was 199 to 199.8 °C.
In the case of `CC(C)C(=O)NCc1cccc(-c2nc(=O)c3ccccc3s2)n1` [Example 206, 2-Methyl-N-[[6-(4-oxo-4H-1,3-benzothiazin-2-yl)-2-pyridyl]methyl]propanamide], the melting point was 188.6 to 189.2 °C.
Work on `O=C(NCc1cccc(-c2nc(=O)c3ccccc3s2)n1)c1ccccc1` [Example 207, N-[[6-(4-Oxo-4H-1,3-benzothiazin-2-yl)-2-pyridyl]methyl]benzamide] yielded a melting point of 213.9 to 214.7 °C.
`O=C(NCc1cccc(-c2nc(=O)c3ccccc3s2)n1)c1cccs1` [Example 208, N-[[6-(4-Oxo-4H-1,3-benzothiazin-2-yl)-2-pyridyl]methyl]-2-thiophenecarboxamide] showed a melting point of 208.5 to 209 °C.
In the case of `O=C(NCc1cccc(-c2nc(=O)c3ccccc3s2)n1)C(F)(F)F` [Example 209, 2,2,2-Trifluoro-N-[[6-(4-oxo-4H-1,3-benzothiazin-2-yl)-2-pyridyl]methyl]acetamide], the melting point was 226.4 to 227.4 °C.
`CSCCC(=O)NCc1cccc(-c2nc(=O)c3ccccc3s2)n1` [Example 210, 3-(Methylthio)-N-[[6-(4-oxo-4H-1,3-benzothiazin-2-yl)-2-pyridyl]methyl]propanamide] showed a melting point of 191.6 to 192.8 °C.
In the case of `CS(=O)(=O)NCc1cccc(-c2nc(=O)c3ccccc3s2)n1` [Example 211, N-[[6-(4-Oxo-4H-1,3-benzothiazin-2-yl)-2-pyridyl]methyl]methanesulfonamide], the melting point was 188.1 to 189.5 °C.
`CCS(=O)(=O)NCc1cccc(-c2nc(=O)c3ccccc3s2)n1` [Example 212, N-[[6-(4-Oxo-4H-1,3-benzothiazin-2-yl)-2-pyridyl]methyl]ethanesulfonamide] gave a melting point of 170 to 171 °C.
`O=c1nc(-c2cccc(CNS(=O)(=O)c3ccccc3)n2)sc2ccccc12` [Example 213, N-[[6-(4-Oxo-4H-1,3-benzothiazin-2-yl)-2-pyridyl]methyl]benzenesulfonamide] showed a melting point of 206.7 to 207.5 °C.
In the case of `CN(C)C(=O)NCc1cccc(-c2nc(=O)c3ccccc3s2)n1` [Example 216, N,N-Dimethyl-N′-[[6-(4-oxo-4H-1,3-benzothiazin-2-yl)-2-pyridyl]methyl]urea], the melting point was 175.2 to 176.3 °C.
For `CC(C)(C)OC(=O)NCCc1cccc(-c2nc(=O)c3ccccc3s2)n1` [Example 217, tert-Butyl 2-[6-(4-oxo-4H-1,3-benzothiazin-2-yl)-2-pyridyl]ethylcarbamate], the melting point was 170.2 to 170.8 °C.
`CC(C)(C)OC(=O)NCCc1ccnc(-c2nc(=O)c3ccccc3s2)c1` [Example 218, tert-Butyl 2-[2-(4-oxo-4H-1,3-benzothiazin-2-yl)-4-pyridyl]ethylcarbamate] showed a melting point of 159.8 to 161 °C.
`CC(C)(C)OC(=O)NCCc1ccnc(-c2nc(=O)c3ccc(Cl)cc3s2)c1` [Example 219, tert-Butyl 2-[2-(7-chloro-4-oxo-4H-1,3-benzothiazin-2-yl)-4-pyridyl]ethylcarbamate] gave a melting point of 168.2 to 169.2 °C.
For `O=C(NCCc1cccc(-c2nc(=O)c3ccccc3s2)n1)c1ccccc1` [Example 224, N-[2-[6-(4-Oxo-4H-1,3-benzothiazin-2-yl)-2-pyridyl]ethyl]benzamide], the melting point was 201.7 to 202.6 °C.
`O=C(NCCc1ccnc(-c2nc(=O)c3ccccc3s2)c1)c1ccccc1` [Example 225, N-[2-[2-(4-Oxo-4H-1,3-benzothiazin-2-yl)-4-pyridyl]ethyl]benzamide] showed a melting point of 216.8 to 219.3 °C.
`CC(=O)NCCc1cccc(-c2nc(=O)c3ccccc3s2)n1` [Example 226, N-[2-[6-(4-Oxo-4H-1,3-benzothiazin-2-yl)-2-pyrizyl]ethyl]acetamide] gave a melting point of 206.7 to 207.9 °C.
`O=C(NCCc1cccc(-c2nc(=O)c3ccccc3s2)n1)Nc1ccccc1` [Example 227, N-[2-[6-(4-Oxo-4H-1,3-benzothiazin-2-yl)-2-pyridyl]ethyl]-N′-phenylurea] gave a melting point of 234.8 to 236.4 °C.
Compound `CCNC(=O)NCCc1cccc(-c2nc(=O)c3ccccc3s2)n1` [Example 228, N-Ethyl-N′-[2-[6-(4-oxo-4H-1,3-benzothiazin-2-yl)-2-pyridyl]ethyl]urea] has a melting point of 240.3 to 242.4 °C.
Compound `CN(C)C(=O)NCCc1cccc(-c2nc(=O)c3ccccc3s2)n1` [Example 229, N,N-Dimethyl-N′-[2-[6-(4-oxo-4H-1,3-benzothiazin-2-yl)-2-pyridyl]ethyl]urea] has a melting point of 190.2 to 191 °C.
For `CCN(CC)C(=O)NCCc1cccc(-c2nc(=O)c3ccccc3s2)n1` [Example 230, N,N-Diethyl-N′-[2-[6-(4-oxo-4H-1,3-benzothiazin-2-yl)-2-pyridyl]ethyl]urea], the melting point was 174.9 to 175.6 °C.
Compound `CN(C)C(=O)Nc1cccc(-c2nc(=O)c3ccccc3s2)n1` [Example 231, N,N-Dimethyl-N′-[6-(4-oxo-4H-1,3-benzothiazin-2-yl)-2-pyridyl]urea] has a melting point of 230.1 to 230.3 °C.
Compound `Cc1cccc2c(=O)nc(-c3cccc(C(=O)OC(C)(C)C)n3)sc12` [Example 232, tert-Butyl 6-(8-methyl-4-oxo-4H-1,3-benzothiazin-2-yl)-2-pyridinecarboxylate] has a melting point of 204.3 to 204.7 °C.
In the case of `Cc1cccc2c(=O)nc(-c3cccc(C(=O)O)n3)sc12` [Example 233, 6-(8-Methyl-4-oxo-4H-1,3-benzothiazin-2-yl)-2-pyridinecarboxylic acid], the melting point was 260.5 to 260.8 °C.
With `Cc1cccc2c(=O)nc(-c3cccc(C(=O)NCCCCCCNC(=O)OC(C)(C)C)n3)sc12` [Example 234, tert-Butyl 6-[[[6-(8-methyl-4-oxo-4H-1,3-benzothiazin-2-yl)-2-pyridyl]carbonyl]amino]hexylcarbamate] the melting point was 170.7 to 171.5 °C.
Compound `O=C1c2ccccc2C(=O)N1Cc1cccc(-c2nc(=O)c3ccccc3s2)n1` [Example 236, 2-[[6-(4-Oxo-4H-1,3-benzothiazin-2-yl)-2-pyridyl]methyl]-1H-isoindole-1,3(2H)-dione] has a melting point of 280.4 to 281.1 °C.
Work on `CCCCNC(=O)c1ccc2c(=O)nc(-c3ccccn3)sc2c1` [Example 237, N-Butyl-4-oxo-2-(2-pyridyl)-4H-1,3-benzothiazine-7-carboxamide] yielded a melting point of 193.5 to 194.2 °C.
Work on `O=C(c1ccc2c(=O)nc(-c3ccccn3)sc2c1)N1CCCC1` [Example 238, 2-(2-Pyridyl)-7-(1-pyrrolidinylcarbonyl)-4H-1,3-benzothiazine-4-one] yielded a melting point of 173.6 to 174.2 °C.
Compound `O=C(NC1CC1)c1ccc2c(=O)nc(-c3ccccn3)sc2c1` [Example 239, N-Cyclopropyl-4-oxo-2-(2-pyridyl)-4H-1,3-benzothiazine-7-carboxamide] has a melting point of 272.1 to 274.1 °C.
